We go through 66 compounds from PubChem BioAssay AID463074 (Broad Institute, 2010).

The source made the active and inactive calls.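 How the source made its calls: active means AC50 no more than tenfold above the top dose tested, or full inhibition at every dose with a flat fit (cut at about 19 µM in these data); inconclusive means flat curve fit with inhibition between 30% and 70%, or poor fit; inactive means AC50 more than tenfold above the top dose tested.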

The term AC50 denotes the midpoint of the concentration-response curve, whichever way the signal moves.

The experiment has as its system HMLE_sh_eGFP viability, CellTiter-Glo luminescence, 72 h. Nature of the experiment: viability loss of HMLE_sh_eGFP cells – cell-based, luminescence, counter-screen for HMLE_sh_ECad selective toxicity project, dose response (AID 463074).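 Further: counterscreen control line to flag general toxicity for the HMLE_sh_ECad screen; potency for loss of viability as luminescence drops below DMSO wells.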
`c1ccc(-c2sc3ccccc3c2-c2ccc(OCCN3CCCC3)cc2)cc1`: the AC50 was 2.37 µM.
The figure for `COc1ccc(S[C@@H](CCN2CC[C@H](NC(=O)OCc3ccccc3)CCC2=O)c2ccccc2)cc1` is 3.12 µM; for `O=C(NC(CSCc1ccccc1)C(=O)N/N=C/c1ccc(O)cc1O)c1ccc([N+](=O)[O-])cc1` (stereo unspecified) it is 2.14 µM; for `Cc1ccc(C(=O)NC2c3ccccc3-c3ccccc32)cc1` it is 0.816 µM.
The figure for `Cc1ccc(-c2cc([C@H]3[C@@H]4C=CCC[C@@]4(C)C(=O)N3Cc3ccccc3)ccc2F)cc1` is 5.2 µM; for `Cc1ccc(NNC(=O)C(O)(c2cccc(C(F)(F)F)c2)c2cccc(C(F)(F)F)c2)cc1` it is 3.29 µM.
The figure for `CCN(CC)c1ccc(S(=O)(=O)Nc2cc(Cl)ccc2Cl)cc1NC(=S)NC(=O)C1CCCC1` is 2.06 µM; for `COc1ccc(C(=O)Nc2cccc(/C=C/c3nc4ccccc4c(=O)[nH]3)c2)cc1` it is 3.58 µM; for `CC(C)C[C@@H](CO)N(Cc1ccccc1)S(=O)(=O)N(Cc1ccccc1)[C@H](CO)CC(C)C` it is 7.24 µM.
With `Cc1cc(C)c(C)c(S(=O)(=O)N2CCN(c3ccc(O)cc3)CC2)c1C`, the AC50 is 10.7 µM.
The figure for `CCOc1cc(/C=C\c2[nH]c(=O)[nH]c(=O)c2[N+](=O)[O-])ccc1OC(C)CC` (stereo unspecified) is 8.32 µM; for `CN(C)C(=O)/C(C#N)=C\c1cc(Br)c(Sc2ccc(Cl)cc2)o1` it is 4.46 µM.
The result for `CN(C)c1ccc(/C=C2\CCC/C(=C\c3ccccc3)C2=O)cc1` reads 5.47 µM.
`CC1CCN(CCCNC(=O)c2ccc3c(=O)n(Cc4ccc(Cl)cc4)c(=S)[nH]c3c2)CC1`: the AC50 was 5.33 µM.
The figure for `CC(C)CCNc1nc(-c2ccco2)c2c(c1C#N)CCCC2` is 11.3 µM; for `Clc1ccc2c(N/N=C/c3ccc(Br)cc3)ccnc2c1` it is 7.56 µM; for `CCC(=O)NC(=S)Nc1cccc(Cl)c1N1CCCCC1` it is 9.96 µM.
The result for `CC1=NN(c2nc(-c3ccc(Cl)cc3)cs2)C(=O)C1` reads 12.3 µM; that for `CC(C)c1ccc(/C=N/NC(=O)c2ccccn2)cc1`, > 19.5 µM (inactive); that for `C=C(C)COc1ccc(-c2[nH]ncc2Oc2ccc(OC)cc2)c(O)c1`, 5.99 µM.
The result for `CCn1c(=O)c([N+](=O)[O-])c(Cl)c2ccccc21` reads 3.56 µM; that for `Cc1cc(C)c2sc(N(CCCN(C)C)C(=O)c3ccc(S(=O)(=O)N4CCCc5ccccc54)cc3)nc2c1`, 3.73 µM; that for `CCCCCCc1cc2cc(S(=O)(=O)c3ccc(Cl)cc3)c(=O)oc2cc1O`, 9.25 µM.
`C/C(=N\NC(=S)NC(C)C)c1ccc(C(C)(C)C)cc1`: the AC50 is 10 µM.
The figure for `CC(C)Oc1ccc(C(=O)/C=C2/C(=O)Nc3ccccc32)cc1` is 6.4 µM.
The figure for `C/C(=N\OCc1nc2ccccc2c(=O)n1/N=C/c1cc([N+](=O)[O-])ccc1O)c1ccccc1` is 16 µM.
The figure for `Cc1ccc(-c2nc(C(Cl)Cl)c3ccccc3n2)cc1` is 1.33 µM; for `CN(C)CCNC(=O)c1sc2nc(-c3ccccc3)cc(C(F)(F)F)c2c1N` it is 5.23 µM.
As for `COc1ccc(OC)c(/C=C2\S/C(=N/NC(=O)c3ccc4ccccc4c3)NC2=O)c1`, the AC50 was 9.71 µM.
The figure for `CC(=O)OCCCNc1cc(Sc2ccc(Cl)cc2)c2nonc2c1[N+](=O)[O-]` is 4.28 µM; for `Cc1cccc(C)c1N=Nc1c(C)cc(O)cc1C` it is 7.2 µM; for `O=C(Nc1cccc(Cl)c1)Nc1cc(S(=O)(=O)N2CCCCC2)ccc1Cl` it is 2.82 µM.
The result for `C/C(=N\Nc1cc(N2CCCCC2)nc(C)n1)c1ccc(Br)cc1` reads 5.82 µM; that for `Cc1c(Cl)c([N+](=O)[O-])nn1Cc1ccc(C(=O)N/N=C\c2cc(Cl)ccc2O)o1`, 4.54 µM.
The result for `COc1ccc2nc(C)cc(N/N=C/c3ccccc3)c2c1` reads 7.36 µM; that for `O=C(NC(NC(=S)Nc1cccc(Cl)c1)C(Cl)(Cl)Cl)OCc1ccccc1` (stereo unspecified), 3.93 µM.
Take `C/C(CC(=O)Nc1ccc(Cl)c(C(F)(F)F)c1)=N\NC(=O)c1cc2ccccc2cc1O`: the AC50 is 13.3 µM.
As to `CN1C2CCC1/C(=C\c1ccccc1)C(=O)/C2=C\c1ccccc1`, the AC50 was 4.24 µM.
The figure for `CN(C)c1ccc(/C=C(\Cl)c2nc3ccccc3s2)cc1` is 2.85 µM; for `O=S(=O)(Nc1nc2ccccc2nc1Nc1ccc(N2CCOCC2)cc1)c1cc(Cl)ccc1Cl` it is 4.23 µM.
The figure for `CCN1CCN(Cc2ccc(NC(=O)c3cc(NC(=O)c4cncc(-c5cccs5)c4)cc(OC)c3)cc2C(F)(F)F)CC1` is 3.52 µM; for `C[C@H]1CCC/C=C/[C@@H]2C[C@H](O)C[C@H]2[C@H](O)/C=C/C(=O)O1` it is less than 0.16 µM.
`O=C(/C=C/c1ccccc1)/C=C/c1ccccc1`: the AC50 is 2.84 µM.
The result for `OC(CN1CCCCC1)Cn1c2ccc(Cl)cc2c2cc(Cl)ccc21` (stereo unspecified) reads 7.56 µM.
`COc1ccc(C)cc1NS(=O)(=O)c1ccc(NC(=O)CN(c2cc([N+](=O)[O-])ccc2C)S(C)(=O)=O)cc1`: the AC50 was 3.8 µM.
The result for `COc1cc(CNC(C)c2ccccc2)cc(Br)c1OCc1ccccc1` (stereo unspecified) reads 6.75 µM.
The figure for `CC(C)(C)c1cc(C(=O)NNc2cccc(Cl)c2)n(Cc2ccccc2)n1` is 2.07 µM; for `CCOC(=O)Nc1ccc2nc(Sc3ccc(Cl)cc3)sc2c1` it is 2.97 µM; for `Cc1cc(C(=O)CN2C(=O)C(=O)N(Cc3ccccc3)C2=O)c(C)n1Cc1ccccc1` it is 11.8 µM.
As for `CC(C)(C)c1ccc(C(=O)Nc2ccc(N3CCOCC3)cc2)cc1`, the AC50 was 17.3 µM.
The result for `O=C(Nc1cc(S(=O)(=O)Nc2ccc(Cl)cc2)ccc1N1CCCCC1)c1ccc(F)cc1Cl` reads 5.37 µM.
The figure for `CCCS(=O)(=O)c1c(S(=O)(=O)CCC)c2c(C)cccn2c1C(=O)N/N=C/c1cc(O)cc(O)c1` is 1.72 µM; for `COc1ccc(C(C)(C)C)cc1NC(=O)Nc1ccc2c(c1)OCO2` it is 8.21 µM.
The result for `CC(C)(C)c1ccc(Oc2ccc(N)cc2)cc1` reads 13.5 µM; that for `O=C(Nc1ccc(Nc2ccccc2)cc1)Nc1ccccc1Cl`, 3.44 µM.
As to `CC(Cc1ccccc1)NCCC(c1ccccc1)c1ccccc1` (stereo unspecified), the AC50 is 8.73 µM.
The figure for `CCCCCc1cc(=O)oc2c(C(CCN3CCCC(C)C3)c3ccc(OC)cc3)c(OC)cc(OC)c12` (stereo unspecified) is 5.33 µM.
The figure for `N#CCSc1nc2c(c(=O)n1Cc1ccco1)C1(CCCC1)Cc1ccccc1-2` is 0.468 µM; for `COC(=O)c1cc(NC(=O)c2cc(-c3ccccc3Cl)oc2C(F)(F)F)ccc1N1CCOCC1` it is 20.3 µM; for `Cn1cccc1/C=C1/C(=O)NC(=S)N(Cc2ccc(F)cc2)C1=O` it is 1.7 µM.
Take `COc1ccc(-c2sc3ccccc3c2/C=C/c2ccc(N)cc2)cc1`: the AC50 is 15.8 µM.
As for `O=C1C=C(c2ccc(Cl)c(C(F)(F)F)c2)C[C@@H](c2ccc3c(c2)OCO3)C1`, the AC50 was 6.37 µM.
The result for `CC(=O)c1ccc(NC(=O)COC(=O)c2c3c(nc4ccccc24)/C(=C\c2cccs2)CCC3)cc1` reads 4.54 µM; that for `Nc1[nH]n2c(=O)cc(-c3ccccc3)nc2c1N=Nc1ccccc1`, 13.3 µM; that for `O=[N+]([O-])c1nn(-c2ccc3c(c2)OCCO3)n(O)c1=NCCC1=CCCCC1`, 17.9 µM.
Turning to `Cc1ccc(NS(=O)(=O)c2ccc(Cl)c(C(=O)Nc3ccccc3-c3nc4ccccc4[nH]3)c2)cc1C`, the AC50 was 1.48 µM.
